Measurements from US8933067B2, “Pyrido and pyrimidopyrimidine derivatives as anti-profilerative agents” (Janssen Pharmaceutica N.V., priority 2003, dated 2015).

Experiments:
SKOV3 cells = assay: Serum starved, EGF stimulated proliferation assay on ovarian carcinoma SKOV3 cells (MTT); format: cell-based; settings: Homo sapiens, SK-OV-3; EGF 100 ng/ml, 72 hours, serum free; pIC50; read-out: SKOV3 cell (C2): IC50 (converted)
Protocol: The ovarian carcinoma cell line (SKOV3) was used in an epidermal growth factor stimulated cell proliferation assay, to assess the inhibitory effect of the compounds on EGF in whole cells.
In a first step the SKOV3 cells were incubated for 24 hours in the presence of 10% FCS serum. In the second step the cells were incubated with the compounds to be tested in a serum free condition (37° C. and 5% (v/v) CO2) and subsequently stimulated for 72 hours with EGF at a final concentration of 100 ng/ml. The effect of the compounds on the EGF stimulation was finally assessed in a standard MTT cell viability assay.

EGFR-kinase domain = target: T1, EGFR-kinase domain (Homo sapiens, UniProt P00533); assay: In vitro inhibition of EGFR (Flash Plate or glass-fiber filter kinase assay); format: biochemical; settings: pIC50; read-out: In vitro kinase activity assay.(C1): IC50 (converted)
T1 construct: 0.35 μg/well poly(GT)biotin and 0.5 μg EGFR-kinase domain/well
T1 sequence (P00533 712-979 limits assumed): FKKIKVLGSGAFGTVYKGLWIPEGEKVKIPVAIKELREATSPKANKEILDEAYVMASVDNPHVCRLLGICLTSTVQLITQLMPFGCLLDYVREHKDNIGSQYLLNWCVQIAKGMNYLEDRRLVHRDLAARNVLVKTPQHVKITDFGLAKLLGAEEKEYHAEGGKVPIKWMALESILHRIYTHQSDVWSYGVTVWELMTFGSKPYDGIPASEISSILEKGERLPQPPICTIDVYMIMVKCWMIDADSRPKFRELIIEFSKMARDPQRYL
Protocol: The in vitro inhibition of EGFR was assessed using either the Flash Plate technology or the glass-fiber filter technology as described by Davies, S. P. et al., Biochem J. (2000), 351; p. 95-105. The Flash Plate technology is generally described by B. A. Brown et al. in High Throughput Screening (1997), p. 317-328. Editor(s): Devlin, John P. Publisher: Dekker, New York, N.Y.
In the Flash Plate EGFR kinase reaction assay, a kinase substrate consisting of biotinylated poly(L-glutamic acid-L-tyrosine) (poly(GT)biotin), is incubated with the aforementioned protein in the presence of (^33P) radiolabeled ATP. (^33P) phosphorylation of the substrate is subsequently measured as light energy emitted using a streptavidin-coated Flash Plate (PerkinElmer Life Sciences) by trapping and quantifying the binding of the biotin tagged and radiolabeled substrate.
The EGFR kinase reaction is performed at 30° C. for 60 minutes in a 96-well microtiter FlashPlate (PerkinElmer Life Sciences). For each of the tested compounds a full dose response 1.10^−6M to 1.10^−10M has been performed. IRESSA® and Tarceva™ (erlotinib) were used as reference compounds. The 100 μl reaction volume contains 54.5 mM TrisHCl pH 8.0, 10 mM MgCl2, 100 μM Na3VO4, 5.0 μM unlabeled ATP, 1 mM DTT, 0.009% BSA, 0.8 μCi AT^33P, 0.35 μg/well poly(GT)biotin and 0.5 μg EGFR-kinase domain/well.
The reaction is stopped by aspirating the reaction mixture and washing the plate 3× with 200 μl wash/stop buffer (PBS+100 mM EDTA). After the final wash step 200 μl of wash/stop buffer was added to each well and the amount of phosphorylated (^33P) Poly(GT)biotin determined by counting (30 sec/well) in a microtiterplate scintillation counter.
In the glass-fiber filter technology EGFR kinase reaction assay, a kinase substrate consisting of poly(L-glutamic acid-L-tyrosine) (poly(GT)), is incubated with the aforementioned protein in the presence of (^33P) radiolabeled ATP. (^33P) Phosporylation of the substrate is subsequently measured as radioactivity bound on a glassfiber-filter.
The EGFR kinase reaction is performed at 25° C. for 10 minutes in a 96-well microtiterplate. For each of the tested compounds a full dose response 1.10^−6M to 1.10^−10M has been performed. IRESSA® and Tarceva™ (erlotinib) were used as reference compounds. The 25 μl reaction volume contains 60 mM TrisHCl pH 7.5, 3 mM MgCl2, 3 mM Mn Cl2, 3 μM Na3VO4, 50 μg/ml PEG20000, 5.0 μM unlabeled ATP, 1 mM DTT, 0.1 μCi AT^33P, 62.5 ng/well poly(GT) and 0.5 μg EGFR-kinase domain/well.
The reaction is stopped by adding 5 μl of a 3% phosphoric acid solution. 10 μl of the reaction mixture is then spotted onto a Filtermat A filter (Wallac) and washed 3 times for 5 min. in 75 mM phosphoric acid and 1 time for 5 min. in methanol prior to drying and quantification on the Typhoon (Amersham) using a LE phosphorage storage screen.

| SMILES | IC50 (SKOV3 cells) [nM] | IC50 (EGFR-kinase domain) [nM] | melting point [°C] |
| --- | --- | --- | --- |
| OCCCCCCNc1ccc2ncnc(Nc3cc(Cl)ccc3O)c2n1 [Intermediate 2, phenol, 4-chloro-2-[[6-[(6-hydroxyhexyl)amino]pyrido[3,2-d]pyrimidin-4-yl]amino]-] | 3160 | 6.31 |  |
| OCCCCCNc1ccc2ncnc(Nc3cc(Cl)ccc3O)c2n1 [Intermediate 4, phenol, 4-chloro-2-[[6-[(5-hydroxypentyl)amino]pyrido[3,2-d]pyrimidin-4-yl]amino]-] | 1580 | 5.01 |  |
| OCCCCCCNc1ncc2ncnc(Nc3cc(Cl)ccc3O)c2n1 [Intermediate 6, phenol, 4-chloro-2-[[6-[(6-hydroxyhexyl)amino]pyrimido[5,4-d]pyrimidin-4-yl]amino]-] | 1000 | 3.98 |  |
| OCCCCNc1ccc2ncnc(Nc3cc(Cl)ccc3O)c2n1 [Intermediate 3, phenol, 4-chloro-2-[[6-[(4-hydroxybutyl)amino]pyrido[3,2-d]pyrimidin-4-yl]amino]-] | 794 | 3.98 |  |

More lines, now with the values ahead:

| IC50 (SKOV3 cells) [nM] | IC50 (EGFR-kinase domain) [nM] | melting point [°C] | SMILES |
| --- | --- | --- | --- |
| 589 | 5.01 |  | Clc1ccc2c(c1)Nc1ncnc3ccc(nc13)NCCCCCCO2 [Compound 1, 7H,19H-4,6-ethanediylidenepyrimido[4,5-b][13,1,4,6]benzoxatriazacyclopentadecine, 17-chloro-8,9,10,11,12,13-hexahydro-] |
| > 10000 | 3.16 | > 260 | Clc1ccc2c(c1)Nc1ncnc3cnc(nc13)NCCCCCCO2 [Compound 2, 6,4-(nitrilometheno)pyrimido[4,5-b][13,1,4,6]benzoxatriazacyclopentadecine, 17-chloro-7,8,9,10,11,12,13,19-octahydro-] |
